Results from patent US10118901B2 (priority 2013, dated 2018).

Assays:
Assay type in all cases: cell-based, human
HL-60(TB) = tested on: HL-60(TB)
MOLT-4 = experiment: NCI-60 screen at 10 μM: MOLT-4; conditions: Leukemia MOLT-4; 10 μM single dose; 48 hrs
Experimental: (§1) NL-101 and CY-102 was sent to U.S. National Cancer Institute (NCI) for NCI 60-cell line screening using a single compound dose (10 μM).
(§2) The human tumor cell lines of the cancer screening panel were grown in RPMI 1640 medium containing 5% fetal bovine serum (5% FBS) and 2 mM L-glutamine. For a typical screening experiment, cells were inoculated into 96-well microtiter plates in 100 μL, at plating densities ranging from 5,000 to 40,000 cells/well depending on the doubling time of individual cell lines. After cell inoculation, the microtiter plates were incubated at 37° C., 5% CO2, 95% air, and 100% relative humidity for 24 h prior to addition of experimental compounds. […]
(§3) Following drug addition, the plates were incubated for an additional 48 hrs at 37° C., 5% CO2, 95% air, and 100% relative humidity. […] Bound stain was subsequently solubilized with 10 mM trizma base, and the absorbance was read on an automated plate reader at a wavelength of 515 nm. […]
(§4) Using the seven absorbance measurements [time zero, (Tz), control growth, (C), and test growth in the presence of drug at the 10 μM concentration levels (Ti)], percentage growth was calculated at each of the drug concentrations levels. Percentage growth inhibition was calculated as: [(Ti−Tz)/(C−Tz)]×100 for which Ti>/=Tz or [(Ti−Tz)/Tz]×100 for which Ti<Tz.

RPMI-8226 = experiment: NCI-60 screen at 10 μM: RPMI-8226; conditions: Leukemia RPMI-8226; 10 μM single dose; 48 hrs
Experimental: as §1, §2, §3, §4

SR = experiment: NCI-60 screen at 10 μM: SR; conditions: Leukemia SR; 10 μM single dose; 48 hrs
Experimental: as §1, §2, §3, §4

HOP-62 = experiment: NCI-60 screen at 10 μM: HOP-62; conditions: NSCLC HOP-62; 10 μM single dose; 48 hrs
Experimental: as §1, §2, §3, §4

HT29 = experiment: NCI-60 screen at 10 μM: HT29; conditions: Colon Cancer HT29; 10 μM single dose; 48 hrs
Experimental: as §1, §2, §3, §4

SW-620 = experiment: NCI-60 screen at 10 μM: SW-620; conditions: Colon Cancer SW-620; 10 μM single dose; 48 hrs
Experimental: as §1, §2, §3, §4

SF-295 = experiment: NCI-60 screen at 10 μM: SF-295; conditions: CNS Cancer (Glioma) SF-295; 10 μM single dose; 48 hrs
Experimental: as §1, §2, §3, §4

SNB-19 = experiment: NCI-60 screen at 10 μM: SNB-19; conditions: CNS Cancer (Glioma) SNB-19; 10 μM single dose; 48 hrs
Experimental: as §1, §2, §3, §4

U251 = experiment: NCI-60 screen at 10 μM: U251; conditions: CNS Cancer (Glioma) U251; 10 μM single dose; 48 hrs
Experimental: as §1, §2, §3, §4

LOX IMVI = experiment: NCI-60 screen at 10 μM: LOX IMVI; conditions: Melanoma LOX IMVI; 10 μM single dose; 48 hrs
Experimental: as §1, §2, §3, §4

MALME-3M = experiment: NCI-60 screen at 10 μM: MALME-3M; conditions: Melanoma MALME-3M; 10 μM single dose; 48 hrs
Experimental: as §1, §2, §3, §4

SK-MEL-5 = experiment: NCI-60 screen at 10 μM: SK-MEL-5; conditions: Melanoma SK-MEL-5; 10 μM single dose; 48 hrs
Experimental: as §1, §2, §3, §4

UACC-257 = experiment: NCI-60 screen at 10 μM: UACC-257; conditions: Melanoma UACC-257; 10 μM single dose; 48 hrs
Experimental: as §1, §2, §3, §4

OVCAR-4 = experiment: NCI-60 screen at 10 μM: OVCAR-4; conditions: Ovarian Cancer OVCAR-4; 10 μM single dose; 48 hrs
Experimental: as §1, §2, §3, §4

OVCAR-5 = experiment: NCI-60 screen at 10 μM: OVCAR-5; conditions: Ovarian Cancer OVCAR-5; 10 μM single dose; 48 hrs
Experimental: as §1, §2, §3, §4

786-0 = experiment: NCI-60 screen at 10 μM: 786-0; conditions: Renal Cancer 786-0; 10 μM single dose; 48 hrs
Experimental: as §1, §2, §3, §4

A498 = experiment: NCI-60 screen at 10 μM: A498; conditions: Renal Cancer A498; 10 μM single dose; 48 hrs
Experimental: as §1, §2, §3, §4

ACHN = experiment: NCI-60 screen at 10 μM: ACHN; conditions: Renal Cancer ACHN; 10 μM single dose; 48 hrs
Experimental: as §1, §2, §3, §4

CAKI-1 = experiment: NCI-60 screen at 10 μM: CAKI-1; conditions: Renal Cancer CAKI-1; 10 μM single dose; 48 hrs
Experimental: as §1, §2, §3, §4

PC-3 = experiment: NCI-60 screen at 10 μM: PC-3; conditions: Prostate Cancer PC-3; 10 μM single dose; 48 hrs
Experimental: as §1, §2, §3, §4

DU-145 = experiment: NCI-60 screen at 10 μM: DU-145; conditions: Prostate Cancer DU-145; 10 μM single dose; 48 hrs
Experimental: as §1, §2, §3, §4

HS 578T = experiment: NCI-60 screen at 10 μM: HS 578T; conditions: Breast Cancer HS 578T; 10 μM single dose; 48 hrs
Experimental: as §1, §2, §3, §4

MDA-MB-468 = experiment: NCI-60 screen at 10 μM: MDA-MB-468; conditions: Breast Cancer MDA-MB-468; 10 μM single dose; 48 hrs
Experimental: as §1, §2, §3, §4

| Compound | Growth % (HL-60(TB)) | Growth % (MOLT-4) | Growth % (RPMI-8226) | Growth % (SR) | Growth % (HOP-62) | Growth % (HT29) | Growth % (SW-620) | Growth % (SF-295) | Growth % (SNB-19) | Growth % (U251) | Growth % (LOX IMVI) | Growth % (MALME-3M) | Growth % (SK-MEL-5) | Growth % (UACC-257) | Growth % (OVCAR-4) | Growth % (OVCAR-5) | Growth % (786-0) | Growth % (A498) | Growth % (ACHN) | Growth % (CAKI-1) | also measured |
| --- | --- | --- | --- | --- | --- | --- | --- | --- | --- | --- | --- | --- | --- | --- | --- | --- | --- | --- | --- | --- | --- |
| Cn1c(CCNCc2ccc(/C=C/C(=O)NO)cc2)nc2cc(N(CCCl)CCCl)ccc21 [CY-102] | −10.34% | 2.17% | 2.28% | 0.09% | −30.02% | −50.67% | 2.33% | −53.87% | −10.81% | −39.66% | −26.41% | −64.17% | −79.31% | −36.39% | −19.00% | −3.75% | −30.40% | −81.56% | −19.97% | −25.49% | Growth % (PC-3): −1.86%; Growth % (DU-145): −16.06%; Growth % (HS 578T): 8.17%; Growth % (MDA-MB-468): −21.52% |
| Cn1c(CCCCCCC(=O)NO)nc2cc(N(CCCl)CCCl)ccc21 [NL-101] | 18.98% | 18.01% | 49.23% | 29.62% | 13.56% | 37.10% | 30.40% | 43.95% | 55.62% | 35.03% | −23.43% | 28.59% | −6.55% | 33.75% | 68.52% | 66.28% | 19.82% | 49.70% | 14.30% | 27.64% | Growth % (PC-3): 51.40%; Growth % (DU-145): 18.47%; Growth % (HS 578T): 24.01%; Growth % (MDA-MB-468): −34.68% |
